From patent publication US20090163521A1, “Novel Pyrazolopyrimidinone Derivatives” (ORCHID RESEARCH LABORATORIES LIMITED, priority 2005, published 2009)

Legend:
COX-2 = biological target: T1, COX-2 (Homo sapiens, UniProt P35354); test: Human whole blood assay (LPS-induced PGE2, COX-2 inhibition); assay type: cell-based; conditions: LPS stimulated
T1 construct: Fresh blood was collected in tubes containing sodium heparin by vein puncture from healthy male volunteers; endogenous in cells; host or cells: human whole blood from healthy male volunteers, aspirin-pretreated and LPS-stimulated
T1 sequence (P35354 18-604): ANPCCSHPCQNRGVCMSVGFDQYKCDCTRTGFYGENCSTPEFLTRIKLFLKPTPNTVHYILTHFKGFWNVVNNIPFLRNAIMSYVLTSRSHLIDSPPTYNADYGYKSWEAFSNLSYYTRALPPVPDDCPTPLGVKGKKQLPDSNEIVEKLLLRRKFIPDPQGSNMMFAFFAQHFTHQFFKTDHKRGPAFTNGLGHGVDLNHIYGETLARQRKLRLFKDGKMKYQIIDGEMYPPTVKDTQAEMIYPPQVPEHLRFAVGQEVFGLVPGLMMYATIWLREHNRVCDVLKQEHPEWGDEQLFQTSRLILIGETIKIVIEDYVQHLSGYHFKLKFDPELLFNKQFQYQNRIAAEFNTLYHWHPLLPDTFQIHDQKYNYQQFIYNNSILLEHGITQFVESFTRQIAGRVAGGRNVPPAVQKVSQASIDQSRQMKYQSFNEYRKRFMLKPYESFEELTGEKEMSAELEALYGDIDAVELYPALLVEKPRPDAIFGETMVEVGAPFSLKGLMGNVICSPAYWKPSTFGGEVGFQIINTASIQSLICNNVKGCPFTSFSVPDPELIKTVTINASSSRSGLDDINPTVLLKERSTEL
Procedure: Human whole blood provides a protein and cell rich milieu appropriate for the study of biochemical efficacy of anti-inflammatory compounds such as selective COX-2 inhibitors. […] This is correlating with the observation that COX-2 inhibitors have no effect on prostaglandin E2 (PGE2) production in normal blood. These inhibitors were active only after incubation of human blood with lipopolysaccharide (LPS), which induces COX-2 production in the blood.
Fresh blood was collected in tubes containing sodium heparin by vein puncture from healthy male volunteers. The subjects should have no apparent inflammatory conditions and not taken NSAIDs for at least 7 days prior to blood collection. Blood was preincubated with aspirin in vitro (12 μg/ml, at time zero) to inactivate COX-1 for 6 hours. Then test compounds (at various concentrations) or vehicle were added to blood. After that blood was stimulated with LPS B:4 (10 μg/ml) and incubated for another 18 h at 37° C. water bath. After which the blood was centrifuged, plasma was separated and stored at −80° C. (J. Pharmacol. Exp. Ther, 271, 1705, 1994; Proc. Natl. Acad. Sci. USA, 96, 7563, 1999). The plasma was assayed for PGE2 using Cayman ELISA kit as per the procedure outlined by the manufacturer (Cayman Chemicals, Ann Arbor, USA).

Ulcerogenic potential = assay type: in vivo, rat; conditions: oral; 4 hrs after administration; dose selected 50, 100, 200 mg/kg
Description: In order to evaluate compound's role on the ulcer formation, the animals were sacrificed and the stomach was taken out and flushed with 1% formalin. Animals (male wistar 200 gm) were fasted for 18 hrs free access to water and the test compounds were suspended in 0.5% Tween 80 and 0.25% CMC (carboxymethylcellulose) solution to make a uniform suspension. After 4 hrs of oral administration of test compounds, all the animals were sacrificed by cervical dislocation. Dissect the stomach carefully and filled up with a sterile saline solution and embedded in 6% formalin solution. […] Compare the test compound treated groups with the vehicle treated groups. Dose selected: 50, 100, 200 mg/kg (Marco Romano et al, Journal of clinical Investigation, 1992; 2409-2421).

Rat Paw Edema model = test: Carrageenan induced paw edema test in rat; assay type: in vivo; conditions: 5 mg/kg b. wt., p.o.; 3 hours after carrageenan
Procedure: The carrageenan paw edema test was performed as described by Winter et al (Proc. Soc. Exp. Biol. Med, 111, 544, 1962). Male wistar rats were selected with body weights equivalent within each group. The rats were fasted for eighteen hours with free access to water. The rats were dosed orally with the test compound suspended in vehicle containing 0.25% carboxymethylcellulose and 0.5% Tween 80. The control rats were administered with vehicle alone. After an hour, the rats were injected with 0.1 ml of 1% Carrageenan solution in 0.9% saline into the sub-plantar surface of the right hind paw. Paw volume was measured using digital plethysmograph before and after 3 hours of carrageenan injection. The average of foot swelling in drug treated animals was compared with that of control animals. Anti-inflammatory activity was expressed as the percentage inhibition of edema compared with control group [Arzneim-Forsch/Drug Res., 43 (1), 1, 44-50, 1993; Ottemess and Bliven, Laboratory Models for Testing NSAIDs, In Non-Steroidal Anti-Inflammatory Drugs, (J. Lombardino, ed. 1985)].

NCI-H460 = test: DTP human tumor cell line screen, NCI-H460; assay type: cell-based; conditions: 100 μM; 48 hours; percent growth of control
Procedure: (§1) The current assay utilizes a 384 well plate format and fluorescent staining technologies resulting in greater screening capacity for testing of synthetic samples.
(§2) The cell lines of the cancer-screening panel are grown in RPMI 1640 medium containing 5% fetal bovine serum and 2 mM L-glutamine. For a typical screening experiment, cells are inoculated into 96 well microtiter plates in 100 μL. After cell inoculation, the micro-titer plates are incubated at 37° C., 5% CO2, 95% air and 100% relative humidity for 24 h prior to addition of experimental drugs. The cells are plated a densities of 5000 cells/well (MCF7), 1000 cells/well (NCI-H460), and 7500 cells/well (SF-268) to allow for varying doubling time of the cell lines. Each plate contains all three-cell lines, a series of dilutions of standard agents, total kill wells and appropriate controls. Plates are incubated under standard conditions for 24 hours prior to addition of experimental compounds or extracts.
(§3) Experimental compounds are solubilized in dimethyl sulfoxide (DMSO) at 400-times the desired maximum test concentration (maximum final DMSO concentration of 0.25%) and stored frozen. Compounds are then diluted with complete media with 0.1% gentamicin sulfate (5 μl of test sample in 100% DMSO is added to 565 μl of complete medium). 20 μl of this solution is then dispensed into test wells containing 50 μl of cell suspension to yield a test concentration of 1.00E-04M.
(§4) After compound addition, plates are incubated at standard conditions for 48 hours, 10 μl/well Alamar Blue is added and the plates are incubated for an additional 4 hours. Fluorescence is measured using an excitation wavelength of 530 nm and an emission wavelength of 590 nm.
(§5) Percent growth is calculated on a plate-by-plate basis for test wells relative to control wells. Percent Growth is expressed as the ratio of fluorescence of the test well to the average fluorescence of the control wells ×100.

MCF-7 = test: DTP human tumor cell line screen, MCF-7; assay type: cell-based; conditions: 100 μM; 48 hours; percent growth of control
Procedure: as §1, §2, §3, §4, §5

SF-268 = test: DTP human tumor cell line screen, SF-268; assay type: cell-based; conditions: 100 μM; 48 hours; percent growth of control
Procedure: as §1, §2, §3, §4, §5

inhibition at 0.25 µM (COX-2; 0.25 μM): 21.9% | inhibition at 10 µM (COX-2; 10 μM): 16.8% | melting point: 263 to 266 °C
Compound: CSc1ccc(-c2nc3[nH]nc(N)c3c(=O)n2-c2ccc(C)c(C)c2)cc1 [Example 2, 3-amino-5-(3,4-dimethylphenyl)-6-[4-(methylthio)phenyl]-1,5-dihydro-4H-pyrazolo[3,4-d]pyrimidin-4-one]
Ulcer Incidence (Number of animals/Total number of animals) (Ulcerogenic potential): No ulcer | Rat Paw Edema model % Inhibition (Rat Paw Edema model): 30.52 ± 10.3% | % T/C Lung (NCI-H460) (NCI-H460): 7% | % T/C Breast (MCF-7) (MCF-7): 31% | % T/C CNS (SF-268) (SF-268): 39%
